The test system of one test is Δ9desaturase gene. The test is described as follows: Change in expression amount of Δ9desaturase gene in the presence of test substance (real time PCR). The note with it: Substance (1) 10 ppm, (2)(3)(5)(6) 100 ppm, (4) 500 ppm. In kind it is cell-based, Moraxella sp. KMC4-1. The procedure: (§1) The substances (1) to (7) described below each were added to 4 mL SCD liquid medium (manufactured by NIHON PHARMACEUTICAL CO., LTD). As a control, a medium system not added with any test substance was also prepared. To these medium, one platinum loop of precultured Moraxella sp. KMC4-1 was inoculated and cultured for 24 hours at 35 C while shaking (160 rpm).
(§2) To the cell liquid cultured for 24 hours, 10 mg of 16-methyloctadecanoic acid was added as a sebaceous dirt component. After culturing again for 6 hours at 35° C., the cells were collected. As a control, a system not added with a sebaceous dirt component was also cultured and cells were collected therefrom.
(§3) An RNA sample was prepared from the collected cells in the same manner as in the test example 1.
By mixing 2 μL solution of the prepared template diluted ×20 with distilled sterile water, 12.5 μL of TaKaRa SYBR Premix EX Taq (trade name, manufactured by Takara Bio Inc.), 0.5 μL of the primer (des_F1, […]) containing the oligonucleotide having the base sequence set forth in SEQ ID NO: 13, 0.5 μL of the primer (des_R1, […]) containing the oligonucleotide having the base sequence set forth in SEQ ID NO: 14 and 9.5 μL of distilled sterile water, 25 μL reaction solution for real time PCR was prepared.
(§4) Reaction solutions for real time PCR were prepared in the same manner as above, except that, instead of the primer set including the primer containing the oligonucleotide having the base sequence set forth in SEQ ID NO: 13 and the primer containing the oligonucleotide having the base sequence set forth in SEQ ID NO: 14, the primer set described in Tables 11 to 13 was used.
(§5) The reaction solutions for real time PCR each were subjected to a gene amplification by using an automatic gene amplification thermal cycler DICE Real time system II (manufactured by Takara Bio Inc.), and then the expression amount of each of the fatty acid desaturase gene (the Δ9desaturase gene) and the β oxidation-relating enzyme genes (the fadB gene and the fadD gene) was measured. PCR reaction conditions were 40 cycles of (i) a thermal denaturation reaction at 95° C. for 20 seconds, and (ii) an annealing reaction and an elongation reaction at 60° C. for 30 seconds.
(§6) By having the gene expression of 16S rRNA as an internal standard, and having the gene expression amount when adding no sebaceous dirt component and no test substance as a reference value, change in expression amount of each gene was calculated relative to the reference value. A sample, in which the expression amount of the gene was ½ times or less the reference value, was rated as “A”; a sample, in which the expression amount of the gene was more than ½ times and ⅔ times or less the reference value, was rated as “B”; and a sample, in which the expression amount of the gene was more than ⅔ times the reference value, was rated as “C”.

The next test deals with fadB gene. Nature of the test: Change in expression amount of fadB gene in the presence of test substance (real time PCR). In kind it is cell-based, Moraxella sp. KMC4-1. The following applies: for Change in the expression amount of fadB gene: Substance (1) 10 ppm, (2)(3)(5)(6) 100 ppm, (4) 500 ppm. As for the experimental part:
as §1, §2, §3, §4, §5, §6

Another test relates to fadD gene. Nature of the test: Change in expression amount of fadD gene in the presence of test substance (real time PCR). The note with it: Substance (1) 10 ppm, (2)(3)(5)(6) 100 ppm, (4) 500 ppm. In kind it is cell-based, Moraxella sp. KMC4-1. The procedure: as §1, §2, §3, §4, §5, §6
Background: In qPCR the cycle at which signal appears reflects the starting amount.

In the next test the test system is Moraxella sp. KMC4-1. Nature of the test: Bactericidal test. The following applies: 10^6 CFU/mL, 2 hours, 25° C.; Substance (1) 10 ppm, (2)(3)(5)(6) 100 ppm, (4) 500 ppm. In kind it is cell-based. As for the experimental part:
To 5 mL of a test solution in which the substances (1) to (7) each were added so as to be the final concentration described in Table 15, the precultured Moraxella sp. KMC4-1 was inoculated so as to be the concentration of 10^6 CFU/mL and cultured for 2 hours at 25° C. while shaking (160 rpm). After that, it was subjected to serial dilution using LP dilution solution (NIHON PHARMACEUTICAL CO., LTD). Then, by using SCD-LP agar medium (NIHON PHARMACEUTICAL CO., LTD), the number of bacteria remained alive was determined.
As for the growth-inhibitory and the bactericidal effect, the evaluation was made as follows: compared to the control, when there was the bacteria number decrease of log 3 or more, it was rated as “A”; when there was the bacteria number decrease of log 1 or more but less than log 3, it was rated as “B”; and when there was the bacteria number decrease of less than log 1, it was rated as “C”.

[1] abbreviates: primers SEQ ID NO: 13 / 14, 16-methyloctadecanoic acid added, relative to reference without sebaceous dirt component and test substance.

For `CCCCCCCC/C=C\CCCCCCCC(=O)O` [Substance (4)], the “Change in the expression amount of Δ9desaturase gene” value with Δ9desaturase gene (setting [1]), in the test with Δ9desaturase gene (primers SEQ ID NO: 15 / 16), in the test with Δ9desaturase gene (primers SEQ ID NO: 17 / 18), in the test on Δ9desaturase gene (primers SEQ ID NO: 19 / 20), with Δ9desaturase gene (primers SEQ ID NO: 21 / 22) and in the test with Δ9desaturase gene (primers SEQ ID NO: 23 / 24) was “C (the expression amount of the gene was more than ⅔ times the reference value)” each time. Further, the “Change in the expression amount of fadB gene” value in the test on fadB gene (primers SEQ ID NO: 25 / 26), in the test on fadB gene (primers SEQ ID NO: 27 / 28), in the test with fadB gene (primers SEQ ID NO: 29 / 30) and in the test on fadB gene (primers SEQ ID NO: 31 / 32) was “A (the expression amount of the gene was ½ times or less the reference value)” throughout. The “expression amount of the fadB gene by the microorganisms” value in the test on fadB gene (summary of Table 12) is on record as “decreased”. The “Change in the expression amount of fadD gene” value in the test with fadD gene (primers SEQ ID NO: 35 / 36) and in the test on fadD gene (primers SEQ ID NO: 41 / 42) was “C (the expression amount of the gene was more than ⅔ times the reference value)” in each case. Besides, in the test on Moraxella sp. KMC4-1, the Bactericidal effect entry is listed as “C (the bacteria number decrease of less than log 1)”.
Consider `O=C[C@H](O)[C@@H](O)[C@H](O)[C@H](O)CO` [Substance (5)], for which the “Change in the expression amount of Δ9desaturase gene” value in the test on Δ9desaturase gene (setting [1]), in the test on Δ9desaturase gene (primers SEQ ID NO: 15 / 16), in the test with Δ9desaturase gene (primers SEQ ID NO: 17 / 18), in the test on Δ9desaturase gene (primers SEQ ID NO: 19 / 20), in the test with Δ9desaturase gene (primers SEQ ID NO: 21 / 22) and with Δ9desaturase gene (primers SEQ ID NO: 23 / 24) was “C (the expression amount of the gene was more than ⅔ times the reference value)” each time. Moreover, the “Change in the expression amount of fadB gene” value with fadB gene (primers SEQ ID NO: 25 / 26), with fadB gene (primers SEQ ID NO: 27 / 28), in the test with fadB gene (primers SEQ ID NO: 29 / 30) and in the test with fadB gene (primers SEQ ID NO: 31 / 32) was “C (the expression amount of the gene was more than ⅔ times the reference value)” throughout. Also, the “Change in the expression amount of fadD gene” value with fadD gene (primers SEQ ID NO: 35 / 36) and in the test with fadD gene (primers SEQ ID NO: 41 / 42) was “C (the expression amount of the gene was more than ⅔ times the reference value)” in each case. Also, in the test on Moraxella sp. KMC4-1, the Bactericidal effect entry is given as “C (the bacteria number decrease of less than log 1)”.

Source of the values: patent US9809861B2, “Method of evaluating inhibitory effect on damp-dry malodor” (Kao Corporation, priority 2012, dated 2017).
